Data from US20240316059A1, “PEPTIDE DRUG CONJUGATES” (Oncopeptides AB, priority 2021, published 2024).
Where two headings read alike, the source gives them in different places.

Experiments:
[1] = test system: AMO-1; assay: In vitro cytotoxicity, AMO-1 (Multiple Myeloma); assay type: cell-based; settings: Homo sapiens, read-out: Cytotoxicity IC50, AMO-1
Experimental: (§1) All cells were cultivated in RPMI medium 1640 (IX). All media was supplemented with 10 μg/μl penicillin/streptomycin, 10% heat inactivated FBS, 0.1 mM Sodium Pyruvate, 1×MEM NEAA (ThermoFisher) and 1 mM HEPES. The DERL-2 cells had higher FBS (20%) and 40 ng/mL IL-2 was added. hPBMCs were thawed and allowed to acclimatise overnight and then stimulated with 10 μg/mL PHA-M and 40 ng/mL IL-2 for 4 hours before being exposed to test compounds. All cells, except for hPBMCs, were grown to reach log phase before being exposed to the test compounds.
(§2) Test compounds were dissolved in 100% DMSO and added to a 384 assay plate. Additional DMSO was added to maintain the same final DMSO concentration (0.2%) in all wells. 25 μL cell suspension with a concentration of 100000 cells/mL was added to each well. The cells were cultured in a CO2 incubator at 37° C. for 72 h. Plates were equilibrated to room temperature for 30 minutes before adding 20 μL CellTiter-Glo® 2.0 (Promega) reagent to all wells. The plate was then allowed to stabilize for 20 minutes before recording the luminescence (Em filter 700 nm) in an Envision plate reader.

[2] = test system: MM.1S cells; assay: In vitro cytotoxic potency in MM.1S cell viability assay (CellTiter-Glo); assay type: cell-based, human; settings: Homo sapiens, MM1.S, 72 h
Experimental: Methods: MM.1S Cells were cultivated in RPMI medium 1640 (IX) supplemented with 10 μg/μL penicillin/streptomycin, 10% heat inactivated FBS, 0.1 mM Sodium Pyruvate, 1×MEM NEAA (ThermoFisher) and 1 mM HEPES. Cells were grown to reach log phase before being exposed to the test compounds.
as §2, with “compounds (Example compounds 1 to 36, 38 to 41 and 45 to 48) and comparative compounds (bendamustine, busulfan, melphalan, chlorambucil and 4-hydroperoxy cyclophosphamide)” for “compounds”, “(emission” for “(Em”
as §1, §2

[3] = test system: KMS-12-BM; assay: In vitro cytotoxicity, KMS-12-BM (Multiple Myeloma); assay type: cell-based; settings: Homo sapiens, 72 h
Experimental: as §1, §2

[4] = test system: OPM-2; assay: In vitro cytotoxicity, OPM-2 (Multiple Myeloma); assay type: cell-based; settings: Homo sapiens, read-out: Cytotoxicity IC50, OPM-2
Experimental: as §1, §2

[5] = In vitro cytotoxicity, BJ fibroblasts (normal cells); assay type: cell-based; settings: human, CellTiter-Glo 2.0
Experimental: as §1, §2

[6] = test system: SC-1; assay: In vitro cytotoxicity, SC-1 (B cell Lymphoma); assay type: cell-based; settings: Homo sapiens, read-out: Cytotoxicity IC50, SC-1
Experimental: as §1, §2

[7] = test system: U266; assay: In vitro cytotoxicity, U266 (Multiple Myeloma); assay type: cell-based; settings: Homo sapiens, read-out: Cytotoxicity IC50, U266
Experimental: as §1, §2

[8] = test system: RPMI-8226; assay: In vitro cytotoxicity, RPMI-8226 (Multiple Myeloma, resistant); assay type: cell-based; settings: Homo sapiens, read-out: Cytotoxicity IC50, RPMI-8226
Experimental: as §1, §2

[9] = test system: EJM; assay: In vitro cytotoxicity, EJM (Multiple Myeloma); assay type: cell-based; settings: Homo sapiens, 72 h
Experimental: as §1, §2

[10] = test system: MM.1S cells; assay: Cellular retention/efflux: intracellular and extracellular concentrations by LC-MS/MS; assay type: in vitro ADME, human; settings: metabolites measured after treatment with the parent Example compound
Experimental: Methods: MMA1S cells at 2×10^6 cells/mL were seeded at 250 μL per well in a 96-well plate. Cells were incubated in the presence of a test compound for 5, 15, and 60 min before pelleting cells by centrifugation at +4° C. for 5 min. Cell media was immediately harvested to a second plate and stored at −80° C. until further analysis. Pelleted cells were washed once with ice cold PBS before storage at −80° C. until further analysis.
Cells were lysed and protein in the media were precipitated using acetonitrile dimethylformamide, 9:1 containing internal standard. Samples were centrifuged and the supernatant was analyzed with LC-MS/MS (ACQUITY UPLC-Xevo TQ-S micro) to determine compound concentration.
Example compound 1, bendamustine and melphalan were used as test compounds.
Method: Method described in Biological example 3.
Example compounds 1, 2, 3, 4, 6, 7 and 10 were investigated. Intracellular metabolites are formed from all compounds tested. The compound used for cell treatment was metabolised to the ester-hydrolysed compound (here called Metabolite A) and to the amide-hydrolysed compound (called Metabolite B). The example compound structures and the structures of the two metabolites for the respective compounds were as shown in Table 4. The Metabolites B formed under the conditions tested were compounds with structure as Examples 17 and 18: […]

[11] = test system: DNA prepared from MM.1S cells (nuclear HPRT and mitochondrial DNA); assay: Direct DNA damage, PCR amplification of treated DNA (HPRT and mtDNA primers); assay type: biochemical, human; settings: 0.25 μM compound, 30 minutes, 37° C., 1 μg DNA
Experimental: Method: DNA was prepared from MM.1S cells by QIAGEN genomic tip 20/G according to protocol described in Furda et al., Methods Mol Biol, 2012. 1 μg of DNA was treated with 0.25 μM compound for 30 minutes at 37° C. DMSO was used as control treatment. 20 ng of the treated DNA was PCR amplified using Phusion Hot Start II High Fidelity PCR Master Mix (Thermo Scientific) and primers directed to either HPRT or primers directed to mitochondrial DNA (mtDNA) was used, generating 10.4 or 8.9 kb fragments, respectively. The PCR reactions were separated on a 1% agarose gel and visualized by ChemiDoc™ MP Imaging System (BioRad). Example compounds 1, 2 and 38 were investigated, as were compounds 18 and 20, which are metabolites of compound 1. They were compared with bendamustine, melphalan and DMSO control. The results for compounds 1, 2, 18 and 20 with the HPRT primers are shown in FIG. 4(A); the results with the mtDNA primers are shown in FIG. 4(B).

[12] = test system: SK-MM-1; assay: In vitro cytotoxicity, SK-MM-1 (Plasma Cell Leukemia); assay type: cell-based; settings: Homo sapiens; 72 h, CellTiter-Glo 2.0; read-out: Cytotoxicity IC50, SK-MM-1
Experimental: as §1, §2

[13] = test system: U937; assay: In vitro cytotoxicity, U937 (Histiocytic Lymphoma); assay type: cell-based; settings: Homo sapiens, U-937; 72 h, CellTiter-Glo 2.0; read-out: Cytotoxicity IC50, U937
Experimental: as §1, §2

[14] = test system: Toledo; assay: In vitro cytotoxicity, Toledo (Diffuse Large B Cell Lymphoma); assay type: cell-based; settings: Homo sapiens, 72 h, CellTiter-Glo 2.0, read-out: Cytotoxicity IC50, Toledo
Experimental: as §1, §2

[15] = test system: HG-3; assay: In vitro cytotoxicity, HG-3 (Chronic Lymphocytic Leukemia); assay type: cell-based; settings: Homo sapiens, HG-3; 72 h, CellTiter-Glo 2.0; read-out: Cytotoxicity IC50, HG-3
Experimental: as §1, §2

[16] = test system: DOHH-2; assay: In vitro cytotoxicity, DOHH-2 (B Cell Lymphoma); assay type: cell-based; settings: Homo sapiens, DOHH-2; 72 h, CellTiter-Glo 2.0; read-out: Cytotoxicity IC50, DOHH-2
Experimental: as §1, §2

[17] = test system: SU-DHL-8; assay: In vitro cytotoxicity, SU-DHL-8 (B-cell non-Hodgkin Lymphoma); assay type: cell-based; settings: Homo sapiens, SU-DHL-8; 72 h, CellTiter-Glo 2.0; read-out: Cytotoxicity IC50, SU-DHL-8
Experimental: as §1, §2

[18] = read-out: Cytotoxicity IC50, MM.1S
[19] = RPMI-8226, 72 h, CellTiter-Glo 2.0
[20] = CellTiter-Glo 2.0, read-out: Cytotoxicity IC50, KMS-12-BM
[21] = CellTiter-Glo 2.0, read-out: Cytotoxicity IC50, EJM

Compound: CCOC(=O)[C@H](CC(C)C)NC(=O)[C@@H](N)CCc1nc2cc(N(CCCl)CCCl)ccc2n1-c1ccccc1 [Example 13, Ethyl (2S)-2-[[(2S)-2-amino-4-[5-[bis(2-chloroethyl)amino]-1-phenyl-benzimidazol-2-yl]butanoyl]amino]-4-methyl-pentanoate]
- IC50 ([1]; AMO1, 72 h): 965 nM
- IC50 [2, 18]: 49 nM
- IC50 ([2]; read-out: MM.1S IC50): 49 nM
- IC50 ([3]; read-out: Cytotoxicity IC50, KMS-12-BM): 137 nM
- IC50 ([4]; OPM-2, 72 h): 2110 nM
- IC50 at 72 h [5]: > 2000 nM
- IC50 ([6]; SC-1, 72 h): 134 nM
- IC50 ([7]; U-266, 72 h): 400 nM
- IC50 ([8]; RPMI-8226, 72 h): 1720 nM
- IC50 ([9]; read-out: Cytotoxicity IC50, EJM): 356 nM

Compound: Cn1c(CC[C@H](N)C(=O)O)nc2cc(N(CCCl)CCCl)ccc21 [Example 18, (S)-2-amino-4-(5-(bis(2-chloroethyl)amino)-1-methyl-1H-benzo[d]imidazol-2-yl)butanoic acid]
- IC50 ([2]; read-out: MM.1S IC50): 20200 nM
- Intracellular concentration (in words) ([10]; MM.1S cells incubated with test compound 5, 15, 60 min): rapidly formed inside the cells
- Extracellular concentration (in words) ([10]; media of MM.1S cells incubated with test compound 5, 15, 60 min): low levels of it are found in the media outside the cells
- DNA damage on nuclear and mitochondrial DNA (PCR band) [11]: effectively damaged both nuclear and mitochondrial DNA

Compound: CCOC(=O)[C@@H](N)CCc1nc2cc(N(CCCl)CCCl)ccc2n1C.Cl.Cl [Example 38, Ethyl (2S)-2-amino-4-[5-[bis(2-chloroethyl)amino]-1-methyl-benzimidazol-2-yl]butanoate]
- IC50 [12]: 175 nM
- IC50 [2, 18]: 52 nM
- IC50 ([2]; read-out: MM.1S IC50): 52 nM
- IC50 [13]: 25.3 nM
- IC50 ([6]; SC-1, 72 h, CellTiter-Glo 2.0): 77.2 nM
- DNA damage on nuclear and mitochondrial DNA (PCR band) [11]: effectively damaged both nuclear and mitochondrial DNA
- IC50 [14]: 16.2 nM
- IC50 [8, 19]: 676 nM
- IC50 [15]: 49.8 nM
- IC50 [16]: 28.1 nM
- IC50 [17]: 71.4 nM

Compound: CC(C)C[C@H](NC(=O)[C@@H](N)CCc1nc2cc(N(CCCl)CCCl)ccc2n1C)C(=O)N(C)C [Example 30, (2S)-2-[[(2S)-2-Amino-4-[5-[bis(2-chloroethyl)amino]-1-methyl-benzimidazol-2-yl]butanoyl]amino]-N,N,4-trimethyl-pentanamide]
- IC50 ([1]; AMO1, 72 h, CellTiter-Glo 2.0): 653 nM
- IC50 [2, 18]: 39.7 nM
- IC50 ([2]; read-out: MM.1S IC50): 39.7 nM
- IC50 [3, 20]: 45 nM
- IC50 ([4]; OPM-2, 72 h, CellTiter-Glo 2.0): 322 nM
- IC50 at 72 h [5]: > 2000 nM
- IC50 ([6]; SC-1, 72 h, CellTiter-Glo 2.0): 53.7 nM
- IC50 ([7]; U-266, 72 h, CellTiter-Glo 2.0): 131 nM
- IC50 [8, 19]: 492 nM
- IC50 [9, 21]: 173 nM

Compound: CC(C)C[C@H](NC(=O)[C@@H](N)CCc1nc2cc(N(CCCl)CCCl)ccc2n1C)C(=O)O [Example 20, (2S)-2-[[(2S)-2-amino-4-[5-[bis(2-chloroethyl)amino]-1-methyl-benzimidazol-2-yl]butanoyl]amino]-4-methyl-pentanoic acid]
- IC50 ([2]; read-out: MM.1S IC50): 5750 nM
- DNA damage on nuclear and mitochondrial DNA (PCR band) [11]: DNA damaging effect but to a lesser degree compared to Example compounds 1, 2 and 18

Compound: CCOC(=O)[C@H](Cc1ccc(F)cc1)NC(=O)[C@H](CCc1nc2cc(N(CCCl)CCCl)ccc2n1C)NC(C)=O [Example 34, Ethyl (2S)-2-[[(2S)-2-acetamido-4-[5-[bis(2-chloroethyl)amino]-1-methyl-benzimidazol-2-yl]butanoyl]amino]-3-(4-fluorophenyl)propanoate]
- IC50 [12]: 604 nM
- IC50 ([1]; AMO1, 72 h, CellTiter-Glo 2.0): 758 nM
- IC50 [2, 18]: 68.3 nM
- IC50 ([2]; read-out: MM.1S IC50): 68.3 nM
- IC50 [3, 20]: 105 nM
- IC50 [13]: 397 nM
- IC50 ([4]; OPM-2, 72 h, CellTiter-Glo 2.0): 961 nM
- IC50 at 72 h [5]: > 2000 nM
- IC50 ([6]; SC-1, 72 h, CellTiter-Glo 2.0): 1060 nM
- IC50 ([7]; U-266, 72 h, CellTiter-Glo 2.0): 266 nM
- IC50 [14]: 328 nM
- IC50 [8, 19]: 1450 nM
- IC50 [15]: 888 nM
- IC50 [16]: 543 nM
- IC50 [17]: 202 nM
- IC50 [9, 21]: 637 nM

Compound: CC(C)C[C@H](NC(=O)[C@@H](N)CCc1nc2cc(N(CCCl)CCCl)ccc2n1C)C(=O)OCCCN(C)C [Example 28, 3-(Dimethylamino)propyl (2S)-2-[[(2S)-2-amino-4-[5-[bis(2-chloroethyl)amino]-1-methyl-benzimidazol-2-yl]butanoyl]amino]-4-methyl-pentanoate]
- IC50 ([2]; read-out: MM.1S IC50): 352 nM
